Measurements reported in PMC3428805 (Journal of Medicinal Chemistry, 2012).

Columns and labels:
[1] = system: K562 cells; experiment: cells; assay type: cell-based; conditions: Homo sapiens, K562, 72 h, read-out: K562 cells, GI50
[2] = target: CENP-E (Homo sapiens, UniProt Q02224); experiment: Kinesin panel, basal and MT-stimulated ATPase, CENP-E; assay type: biochemical; conditions: data not shown
[3] = target: T1, MKLP-2 (Homo sapiens, UniProt O95235); experiment: Kinesin panel, basal and MT-stimulated ATPase, MKLP-2; assay type: biochemical; conditions: data not shown
T1 sequence (O95235 1-890): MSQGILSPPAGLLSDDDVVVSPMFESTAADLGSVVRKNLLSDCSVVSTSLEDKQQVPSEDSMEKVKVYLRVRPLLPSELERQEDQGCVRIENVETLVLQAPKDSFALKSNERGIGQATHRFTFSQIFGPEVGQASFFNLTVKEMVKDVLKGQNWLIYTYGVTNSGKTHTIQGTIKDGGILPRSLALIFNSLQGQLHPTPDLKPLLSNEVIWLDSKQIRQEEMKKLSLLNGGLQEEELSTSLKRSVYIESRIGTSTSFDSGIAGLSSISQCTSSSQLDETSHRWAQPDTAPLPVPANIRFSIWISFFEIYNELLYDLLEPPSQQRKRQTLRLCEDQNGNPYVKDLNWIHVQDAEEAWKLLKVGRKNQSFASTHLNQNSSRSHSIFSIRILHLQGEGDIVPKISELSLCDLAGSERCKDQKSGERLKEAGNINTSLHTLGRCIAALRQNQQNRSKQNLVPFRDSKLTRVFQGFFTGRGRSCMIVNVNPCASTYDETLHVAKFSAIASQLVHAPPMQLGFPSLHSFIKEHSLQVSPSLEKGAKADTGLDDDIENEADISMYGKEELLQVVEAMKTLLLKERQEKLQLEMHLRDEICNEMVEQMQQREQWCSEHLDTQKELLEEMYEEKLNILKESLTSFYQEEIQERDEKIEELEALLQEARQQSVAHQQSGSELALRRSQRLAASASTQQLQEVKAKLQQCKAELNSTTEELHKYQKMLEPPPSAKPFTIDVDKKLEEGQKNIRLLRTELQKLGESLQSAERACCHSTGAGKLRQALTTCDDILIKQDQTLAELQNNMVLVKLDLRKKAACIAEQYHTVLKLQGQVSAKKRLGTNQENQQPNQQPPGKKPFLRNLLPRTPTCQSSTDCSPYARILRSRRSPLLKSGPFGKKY

[4] = target: T2, Kif5a (Homo sapiens, UniProt Q12840); experiment: Kinesin panel, basal and MT-stimulated ATPase, Kif5a; assay type: biochemical; conditions: data not shown
T2 sequence (Q12840 1-1032): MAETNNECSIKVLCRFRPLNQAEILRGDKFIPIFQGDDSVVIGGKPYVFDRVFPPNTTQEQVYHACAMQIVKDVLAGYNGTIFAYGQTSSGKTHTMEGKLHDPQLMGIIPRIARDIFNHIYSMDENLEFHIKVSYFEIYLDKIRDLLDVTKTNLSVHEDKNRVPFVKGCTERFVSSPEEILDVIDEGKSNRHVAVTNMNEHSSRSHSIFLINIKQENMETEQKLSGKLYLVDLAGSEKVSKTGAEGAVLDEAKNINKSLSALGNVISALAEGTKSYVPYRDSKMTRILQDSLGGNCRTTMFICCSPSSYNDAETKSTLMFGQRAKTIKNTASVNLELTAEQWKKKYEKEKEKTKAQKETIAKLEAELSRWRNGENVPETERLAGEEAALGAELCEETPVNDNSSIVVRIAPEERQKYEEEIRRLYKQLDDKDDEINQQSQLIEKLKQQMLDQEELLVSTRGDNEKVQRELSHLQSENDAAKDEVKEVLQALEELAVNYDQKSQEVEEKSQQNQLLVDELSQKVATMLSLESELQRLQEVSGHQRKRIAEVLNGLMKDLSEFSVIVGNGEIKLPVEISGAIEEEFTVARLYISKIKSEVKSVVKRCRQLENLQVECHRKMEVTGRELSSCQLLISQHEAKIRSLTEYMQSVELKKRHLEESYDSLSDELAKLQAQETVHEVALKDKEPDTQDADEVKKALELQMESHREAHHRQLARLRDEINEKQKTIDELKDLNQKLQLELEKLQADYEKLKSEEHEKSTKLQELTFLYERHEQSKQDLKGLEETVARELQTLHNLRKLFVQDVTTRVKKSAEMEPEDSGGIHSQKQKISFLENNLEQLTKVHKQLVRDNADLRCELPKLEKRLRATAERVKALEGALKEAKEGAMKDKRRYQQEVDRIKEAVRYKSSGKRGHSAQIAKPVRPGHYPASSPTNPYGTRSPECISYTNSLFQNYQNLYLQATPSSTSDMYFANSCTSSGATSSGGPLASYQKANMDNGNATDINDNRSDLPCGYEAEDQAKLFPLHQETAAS

[5] = target: T3, Kif7 (Homo sapiens, UniProt Q2M1P5); experiment: Kinesin panel, basal and MT-stimulated ATPase, Kif7; assay type: biochemical; conditions: data not shown
T3 sequence (Q2M1P5 1-1343): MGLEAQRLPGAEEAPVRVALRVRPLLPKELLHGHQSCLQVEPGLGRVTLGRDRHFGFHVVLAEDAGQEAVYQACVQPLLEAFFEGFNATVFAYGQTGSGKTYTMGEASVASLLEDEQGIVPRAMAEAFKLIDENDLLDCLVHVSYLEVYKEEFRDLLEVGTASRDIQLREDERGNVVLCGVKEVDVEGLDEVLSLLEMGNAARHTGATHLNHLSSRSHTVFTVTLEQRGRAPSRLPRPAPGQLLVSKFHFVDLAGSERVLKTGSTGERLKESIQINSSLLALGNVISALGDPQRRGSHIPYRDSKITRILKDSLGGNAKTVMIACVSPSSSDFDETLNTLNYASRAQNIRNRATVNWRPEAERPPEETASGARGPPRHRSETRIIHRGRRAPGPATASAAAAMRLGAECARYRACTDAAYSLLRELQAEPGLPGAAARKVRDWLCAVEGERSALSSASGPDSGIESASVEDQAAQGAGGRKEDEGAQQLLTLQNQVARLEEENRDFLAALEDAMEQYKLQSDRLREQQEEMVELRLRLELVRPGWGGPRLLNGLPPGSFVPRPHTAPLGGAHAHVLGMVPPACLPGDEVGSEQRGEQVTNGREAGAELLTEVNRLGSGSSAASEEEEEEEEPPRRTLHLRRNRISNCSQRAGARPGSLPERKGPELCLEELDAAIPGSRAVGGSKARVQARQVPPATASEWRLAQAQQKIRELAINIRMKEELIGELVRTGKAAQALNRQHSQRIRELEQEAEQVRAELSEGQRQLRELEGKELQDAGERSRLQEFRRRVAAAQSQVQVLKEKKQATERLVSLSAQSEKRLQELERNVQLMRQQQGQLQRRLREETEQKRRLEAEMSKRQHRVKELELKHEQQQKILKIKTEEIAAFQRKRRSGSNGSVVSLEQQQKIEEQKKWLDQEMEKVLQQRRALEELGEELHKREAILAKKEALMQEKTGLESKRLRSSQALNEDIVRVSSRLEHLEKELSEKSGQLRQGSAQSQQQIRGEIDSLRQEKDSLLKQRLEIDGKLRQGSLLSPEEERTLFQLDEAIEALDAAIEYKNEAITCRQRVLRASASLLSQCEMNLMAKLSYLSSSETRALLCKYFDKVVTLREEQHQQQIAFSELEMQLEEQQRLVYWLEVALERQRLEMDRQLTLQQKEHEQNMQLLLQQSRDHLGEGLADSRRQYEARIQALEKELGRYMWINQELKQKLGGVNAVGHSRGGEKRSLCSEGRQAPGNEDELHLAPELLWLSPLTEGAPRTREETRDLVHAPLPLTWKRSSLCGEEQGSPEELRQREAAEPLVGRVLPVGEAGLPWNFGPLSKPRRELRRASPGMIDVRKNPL

[6] = target: MPP1 (Homo sapiens, UniProt Q96Q89); experiment: Kinesin panel, basal and MT-stimulated ATPase, MPP1; assay type: biochemical; conditions: data not shown
Chain of MPP1 (Q96Q89 whole entry): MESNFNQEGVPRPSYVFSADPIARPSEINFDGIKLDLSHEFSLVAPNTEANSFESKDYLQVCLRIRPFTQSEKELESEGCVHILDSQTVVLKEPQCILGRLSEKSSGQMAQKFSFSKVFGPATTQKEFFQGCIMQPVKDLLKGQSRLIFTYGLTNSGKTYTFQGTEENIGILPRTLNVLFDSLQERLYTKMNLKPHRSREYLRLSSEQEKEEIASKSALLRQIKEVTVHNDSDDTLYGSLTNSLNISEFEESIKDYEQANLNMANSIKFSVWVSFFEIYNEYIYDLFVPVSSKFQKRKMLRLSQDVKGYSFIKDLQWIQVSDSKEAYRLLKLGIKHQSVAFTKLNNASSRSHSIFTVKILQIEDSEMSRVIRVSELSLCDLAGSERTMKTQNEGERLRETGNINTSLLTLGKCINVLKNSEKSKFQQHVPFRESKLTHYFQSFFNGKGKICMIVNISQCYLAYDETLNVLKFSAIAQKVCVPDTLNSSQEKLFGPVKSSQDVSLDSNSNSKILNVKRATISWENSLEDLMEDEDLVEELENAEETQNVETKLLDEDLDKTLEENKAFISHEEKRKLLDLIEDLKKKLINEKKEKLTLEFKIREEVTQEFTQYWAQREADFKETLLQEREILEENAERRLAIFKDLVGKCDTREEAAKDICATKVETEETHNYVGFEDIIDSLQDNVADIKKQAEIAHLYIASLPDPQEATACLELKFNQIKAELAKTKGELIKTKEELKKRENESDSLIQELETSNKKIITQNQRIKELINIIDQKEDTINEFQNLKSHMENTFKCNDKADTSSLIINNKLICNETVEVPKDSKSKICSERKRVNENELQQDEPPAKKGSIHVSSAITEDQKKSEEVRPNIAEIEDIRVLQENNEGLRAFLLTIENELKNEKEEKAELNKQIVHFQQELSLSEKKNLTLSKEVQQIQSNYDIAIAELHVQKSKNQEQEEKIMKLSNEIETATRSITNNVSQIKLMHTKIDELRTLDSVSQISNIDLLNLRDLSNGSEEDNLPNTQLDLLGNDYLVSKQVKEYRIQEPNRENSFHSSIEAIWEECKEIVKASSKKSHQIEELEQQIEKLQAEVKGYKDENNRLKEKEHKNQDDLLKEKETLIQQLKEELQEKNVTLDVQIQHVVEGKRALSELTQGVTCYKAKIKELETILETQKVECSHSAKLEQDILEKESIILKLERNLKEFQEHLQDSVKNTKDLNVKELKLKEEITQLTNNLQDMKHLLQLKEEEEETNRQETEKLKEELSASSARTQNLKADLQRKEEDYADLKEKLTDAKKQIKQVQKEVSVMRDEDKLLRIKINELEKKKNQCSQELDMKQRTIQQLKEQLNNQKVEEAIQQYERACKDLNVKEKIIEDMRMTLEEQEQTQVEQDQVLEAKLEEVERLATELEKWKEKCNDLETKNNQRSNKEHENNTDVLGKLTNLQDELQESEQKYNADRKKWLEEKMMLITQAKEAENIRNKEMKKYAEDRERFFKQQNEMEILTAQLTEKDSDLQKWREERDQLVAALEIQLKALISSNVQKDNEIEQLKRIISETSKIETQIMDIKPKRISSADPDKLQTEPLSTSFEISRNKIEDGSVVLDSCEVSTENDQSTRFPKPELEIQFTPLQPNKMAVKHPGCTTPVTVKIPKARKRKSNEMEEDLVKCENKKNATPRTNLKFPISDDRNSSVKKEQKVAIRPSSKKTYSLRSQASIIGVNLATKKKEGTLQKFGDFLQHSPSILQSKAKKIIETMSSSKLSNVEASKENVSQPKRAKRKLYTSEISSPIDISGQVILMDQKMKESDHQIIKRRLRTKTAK

[7] = Human microsomal stability; conditions: human microsomes, 3 µM
[8] = Human plasma protein binding, equilibrium dialysis; conditions: 50%
[9] = Mouse microsomal stability; conditions: mouse microsomes, 3 µM

Chain of CENP-E (Q02224 whole entry): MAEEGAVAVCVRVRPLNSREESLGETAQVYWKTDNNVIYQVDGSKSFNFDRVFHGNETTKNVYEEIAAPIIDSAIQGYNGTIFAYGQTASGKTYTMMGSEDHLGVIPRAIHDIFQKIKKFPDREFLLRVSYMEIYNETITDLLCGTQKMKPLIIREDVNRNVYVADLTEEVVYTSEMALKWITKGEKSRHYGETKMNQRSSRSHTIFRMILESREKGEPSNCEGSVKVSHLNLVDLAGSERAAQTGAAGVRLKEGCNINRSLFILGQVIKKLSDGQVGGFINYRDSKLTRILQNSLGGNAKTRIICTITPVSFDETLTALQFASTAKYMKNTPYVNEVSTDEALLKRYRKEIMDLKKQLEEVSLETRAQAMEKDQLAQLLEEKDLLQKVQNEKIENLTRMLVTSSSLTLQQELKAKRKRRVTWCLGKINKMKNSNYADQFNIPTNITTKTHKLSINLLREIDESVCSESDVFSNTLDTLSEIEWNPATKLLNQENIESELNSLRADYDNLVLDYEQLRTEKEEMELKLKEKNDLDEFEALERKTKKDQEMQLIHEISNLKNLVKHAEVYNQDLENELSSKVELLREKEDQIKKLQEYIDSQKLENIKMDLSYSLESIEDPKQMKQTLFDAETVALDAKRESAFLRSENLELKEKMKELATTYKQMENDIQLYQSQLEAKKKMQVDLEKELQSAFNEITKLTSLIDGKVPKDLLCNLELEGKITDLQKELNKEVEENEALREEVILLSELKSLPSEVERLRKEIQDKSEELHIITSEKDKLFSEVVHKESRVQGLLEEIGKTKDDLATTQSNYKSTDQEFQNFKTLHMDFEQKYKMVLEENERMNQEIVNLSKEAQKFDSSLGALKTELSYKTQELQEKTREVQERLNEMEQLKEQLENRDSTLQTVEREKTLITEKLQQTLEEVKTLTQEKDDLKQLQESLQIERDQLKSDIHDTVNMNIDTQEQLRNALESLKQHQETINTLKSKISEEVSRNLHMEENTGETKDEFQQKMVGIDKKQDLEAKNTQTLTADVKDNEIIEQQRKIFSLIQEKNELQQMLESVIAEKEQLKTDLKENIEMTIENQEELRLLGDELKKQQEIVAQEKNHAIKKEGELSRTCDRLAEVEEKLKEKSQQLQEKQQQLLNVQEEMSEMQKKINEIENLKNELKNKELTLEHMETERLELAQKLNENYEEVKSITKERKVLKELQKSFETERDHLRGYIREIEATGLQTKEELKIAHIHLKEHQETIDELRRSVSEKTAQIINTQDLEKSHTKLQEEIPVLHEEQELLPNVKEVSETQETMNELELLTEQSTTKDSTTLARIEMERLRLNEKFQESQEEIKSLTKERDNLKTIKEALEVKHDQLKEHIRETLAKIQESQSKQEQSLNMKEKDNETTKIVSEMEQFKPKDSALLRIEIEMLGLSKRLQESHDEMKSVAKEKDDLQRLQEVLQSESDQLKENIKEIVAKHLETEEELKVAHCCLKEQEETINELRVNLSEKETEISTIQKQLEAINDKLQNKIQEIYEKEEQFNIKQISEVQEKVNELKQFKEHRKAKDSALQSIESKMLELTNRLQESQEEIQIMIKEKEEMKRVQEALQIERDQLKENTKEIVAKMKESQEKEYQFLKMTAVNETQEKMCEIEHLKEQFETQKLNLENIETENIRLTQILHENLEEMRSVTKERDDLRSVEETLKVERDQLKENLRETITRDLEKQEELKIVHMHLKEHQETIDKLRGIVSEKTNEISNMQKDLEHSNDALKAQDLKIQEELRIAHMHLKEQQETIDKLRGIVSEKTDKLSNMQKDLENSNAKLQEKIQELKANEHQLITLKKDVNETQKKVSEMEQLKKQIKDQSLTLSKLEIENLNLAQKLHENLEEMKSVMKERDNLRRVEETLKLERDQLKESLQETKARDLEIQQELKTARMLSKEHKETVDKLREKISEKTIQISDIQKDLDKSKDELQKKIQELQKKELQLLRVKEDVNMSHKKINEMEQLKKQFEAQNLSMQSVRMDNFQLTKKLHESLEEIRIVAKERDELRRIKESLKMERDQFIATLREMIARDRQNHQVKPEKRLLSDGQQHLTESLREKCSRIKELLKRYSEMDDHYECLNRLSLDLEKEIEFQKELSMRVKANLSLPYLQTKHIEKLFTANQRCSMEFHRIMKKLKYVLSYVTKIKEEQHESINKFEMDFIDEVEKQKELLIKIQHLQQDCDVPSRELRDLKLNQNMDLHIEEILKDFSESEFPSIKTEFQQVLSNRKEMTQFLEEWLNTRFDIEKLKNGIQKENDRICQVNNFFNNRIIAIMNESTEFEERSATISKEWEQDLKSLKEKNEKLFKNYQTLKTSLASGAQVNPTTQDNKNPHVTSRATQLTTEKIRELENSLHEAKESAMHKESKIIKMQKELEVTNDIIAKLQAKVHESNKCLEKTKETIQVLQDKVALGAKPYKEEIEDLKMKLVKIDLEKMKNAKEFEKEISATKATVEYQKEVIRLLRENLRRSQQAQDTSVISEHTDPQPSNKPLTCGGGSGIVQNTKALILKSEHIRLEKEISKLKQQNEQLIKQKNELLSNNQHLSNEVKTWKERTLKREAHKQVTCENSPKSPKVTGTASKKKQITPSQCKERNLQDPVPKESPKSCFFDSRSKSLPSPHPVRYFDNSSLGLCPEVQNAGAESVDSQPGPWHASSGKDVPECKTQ

Row | Structure (SMILES) | GI50 [1] | inhibition of basal and MT-stimulated ATPase activities, CENP-E [2] | inhibition of basal and MT-stimulated ATPase activities, MKLP-2 [3] | inhibition of basal and MT-stimulated ATPase activities, Kif5a [4] | inhibition of basal and MT-stimulated ATPase activities, Kif7 [5] | inhibition of basal and MT-stimulated ATPase activities, MPP1 [6] | turbidimetric solubility pH 7.4 | microsomal stability, Clint, human [7] | recovery at 5 µM [8] | microsomal stability, Clint, mice [9]
1 | Cc1cccc(C(CCC(N)C(=O)O)(c2ccccc2)c2ccccc2)c1 (racemic) [rac-29, 2-Amino-5-(3-methylphenyl)-5,5-diphenylpentanoic acid] | 91 ± 9 nM | did not observe any significant inhibition | did not observe any significant inhibition | did not observe any significant inhibition | did not observe any significant inhibition | did not observe any significant inhibition | – | – | – | –
2 | Cc1cccc(C(CCCN)(c2ccccc2)c2ccccc2)c1 [compound 30, 4-(3-Methylphenyl)-4,4-diphenylbutan-1-amine] | – | – | – | – | – | – | >100, >100, >100 μM | stable | 69.1% | high microsomal clearance
